One may read the IC50 as the concentration that inhibits the measured activity by half.

Molecules are shown by their SMILES. Read-outs that look alike come from different tables or passages of the source.

Here are results for twelve compounds from US20230295145A1, “PYRROLIDINE DERIVATIVES AND METHODS OF USE” (Genentech, Inc., priority 2020, published 2023).

The target in data set [1] is T1, VHL (Homo sapiens, UniProt P40337).
T1 construct: expressed in transfected cells
The data set is described as follows: VHL HEK-293 BRET Assay (VHL NanoBRET Target Engagement Assay). It counts as cell-based. The following applies: HEK 293 RT VHL-NanoLuc stable cells; read-out: IC50. How it is done:
The VHL NanoBRET™ Target Engagement Assay analyzes the apparent affinity of test compounds for VHL in cells by competitive displacement of a VHL NanoBRET™ tracer reversibly bound to a NanoLuc® VHL fusion protein stably expressed in the cells.
Test compounds were transferred to the assay plate (384 Well White Non-Binding Corning Assay Plates (Corning-3574)) using an Echo 555 Liquid Handler (Labcyte) in 2.5 nL increments and, as appropriate, intermediate stock concentrations of compounds, in order to prepare a titration series. 50 nL of control compound (10 mM; parental unlabeled VHL antagonist; see structure below) and 50 nL of DMSO (negative control) were dispensed into the appropriate control wells. DMSO was backfilled to a final volume of 50 nL as required. 50 nl per well of 1 mM VHL NanoBRET™ Tracer in DMSO (NanoBRET™ Tracer-PEG2-590 (see structure below)) was transferred into each well using an Echo 555 (ultimately yielding a final concentration of 1 uM). HEK 293 RT VHL-NanoLuc® stable cells were cultured in DMEM High Glucose with Pyruvate, 10% fetal bovine serum, 2 mg/mL of Geneticin Selective Antibiotic (50 mg/mL) and 2 mM HEPES (1 M). Cells were seeded in Opti-MEM (Life Technologies-11058-021), 1.7×10^5 cells/mL, 40 μl per well into the assay plate, centrifuged at 500 rpm for 30 seconds and incubated for 2 hours. Max Signal control wells consisted of DMSO only treated wells. Minimum Signal control wells contained of 10 uM parental unlabeled VHL antagonist (control compound—see structure below). 3× Complete Substrate plus Inhibitor Solution was prepared in Opti-MEM (consists of a 1:166 dilution of NanoBRET™ Nano-Glo® Substrate plus a 1:500 dilution of Extracellular NanoLuc® Inhibitor in Opti-MEM), and 20 ul was dispensed into each well of the 384-well plate and centrifuged at 1000 rpm for 1 minute, then incubated for 2 minutes at room temperature. Background Signal control wells were prepared without tracer for background correction steps.
Plates were read using a PerkinElmer Envision Reader (model 2104-0020) equipped with Luminescence option (Mirror: BRET2 Enh (PE Barcode 659), Emission Filter: Omega 610LP (Barcode 504), 2nd Emission Filter: Umbelliferone 460 (Barcode 207), Measurement height: 6.5 mm, Measurement time: 1 s). The raw BRET ratio values were calculated by dividing the acceptor emission value (610 nm) by the donor emission value (460 nm) for each sample. To correct for background, the BRET ratio in the absence of tracer (average of no-tracer control samples) was subtracted from the BRET ratio of each sample. Raw BRET units were converted to milliBRET units (mBU) by multiplying each raw BRET value by 1,000. The normalized NanoBRET™ signal was calculated relative to the Max Signal control wells (DMSO treated control wells) and the Minimum Signal control wells. Percentage inhibition was calculated relative to the Minimum Signal control and Maximum Signal control wells. IC50 values were derived by four parameter curve fitting using the Robust method.
(In general: In BRET a luciferase serves as donor, and the signal depends on an acceptor being close.)

Data set [2] deals with T1, VHL. The data set is described as above. The following applies: IC50 values measured in the presence of digitonin; HEK 293 RT VHL-NanoLuc stable cells; read-out: IC50 + Digi (μM)*. It counts as cell-based.
For data set [3], the system named is HCC366. Kind of data set: Cell Viability Assay (CellTiter-Glo). It counts as cell-based. The following applies: 10 μM, 5 days. In general terms: ATP-based viability assays read luminescence as a measure of living cells.
Description: (§1) Cell lines were cultured in RPMI-1640, 5% fetal bovine serum, and 2 mM glutamine in a humidified incubator maintained at 37° C. with 5% CO2. Cells were assessed with a Vi-CELL Cell Viability Analyzer (Beckman Coulter; Brea, CA); viability of at least 90% was required for screening. A Multidropä Combi Reagent Dispenser (Thermo Scientific; Waltham, MA) was used to plate cells into Falcons^â 384-well, black, clear-bottom plates (Catalog No. 353962; Corning; Tewksbury, MA) using seeding densities previous determined to achieve approximately 80% confluence at the final time point of the assay. The compounds were prepared at 1000× in advance using an Echo 555 liquid handler (Labcyte; Sunnyvale, CA) and stored in −80° C. until the day of compound addition. On the following day, cells were treated with compounds at final assay concentration 1 uM and 10 uM using a Bravo Automated Liquid-Handling Platform (Agilent; Santa Clara, CA). After 5 days, 25 mL CellTiter-Glo^â reagent was added using a MultiFloä Microplate Dispenser (BioTek; Winooski, VT). Cell lysis was induced by mixing for 30 minutes on an orbital shaker; plates were then incubated at room temperature for 10 minutes to stabilize the luminescent signal. Luminescence was read by a 2104 EnVision^â Multilabel Plate Reader (PerkinElmer; Waltham, MA).
(§2) The data was processed using Genedata Screener^â, Version 15 (Genedata; Basel, Switzerland) to assess compound effects on viability. Compound treated wells were normalized to the median value of 14 DMSO control wells on the same 384 well plate.
The test system of data set [4] is CAL-120. The data set is described as follows: Cell Viability Assay (CellTiter-Glo). The following applies: 5 days.
Description: as §1, §2
The test system of data set [5] is NCI-H2030. The data set is described as follows: Cell Viability Assay (CellTiter-Glo). The format is cell-based. The following applies: 5 days.
Description: as §1, §2
Data set [6] relates to NCI-H23. Kind of data set: Cell Viability Assay (CellTiter-Glo). The format is cell-based. The following applies: 10 μM, 5 days.
Description: as §1, §2
Data set [7] concerns PANC-1. Kind of data set: Cell Viability Assay (CellTiter-Glo). It counts as cell-based. The following applies: 10 μM, 5 days.
Description: as §1, §2

T1 sequence (P40337 whole entry): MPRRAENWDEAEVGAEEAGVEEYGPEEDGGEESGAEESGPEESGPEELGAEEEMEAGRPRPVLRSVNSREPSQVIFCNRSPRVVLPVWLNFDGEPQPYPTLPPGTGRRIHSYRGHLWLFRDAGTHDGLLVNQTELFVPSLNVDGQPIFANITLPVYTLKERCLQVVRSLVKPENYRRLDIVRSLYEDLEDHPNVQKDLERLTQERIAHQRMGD

In the case of `CC(C)(C)[C@@H](C(=O)N1C[C@H](O)C[C@H]1C(=O)N[C@H]1CC[C@H](c2nc3ccccc3o2)CC1)n1cc(C2CC2)nn1` [Compound 106, (2S,4R)-N-[4-(1,3-benzoxazol-2-yl)cyclohexyl]-1-[(2S)-2-(4-cyclopropyltriazol-1-yl)-3,3-dimethyl-butanoyl]-4-hydroxy-pyrrolidine-2-carboxamide], the values for the IC50 in data set [1] and in data set [2] were 3.37 µM and 4.41 µM, respectively. In data set [3], the “Normalized viability % DMSO” value amounted to 6.0 % DMSO.

On to `CC(C)(C)[C@@H](C(=O)N1C[C@H](O)C[C@H]1C(=O)NC1CC12CCc1cc(Br)ccc12)n1cc(C2CC2)nn1` (stereo partly drawn) [Compound 266, (2S,4R)-N-(5′-bromospiro[cyclopropane-2,1′-indane]-1-yl)-1-[(2S)-2-(4-cyclopropyltriazol-1-yl)-3,3-dimethyl-butanoyl]-4-hydroxy-pyrrolidine-2-carboxamide], for which the “Normalized viability % DMSO” value stood at 46.4 % DMSO in data set [4] (10 μM), 31.8 % DMSO in data set [5] (10 μM), 37.6 % DMSO in data set [6] and 27.6 % DMSO in data set [7]. Besides, the half-inhibitory concentration (IC50) in data set [1] was 3.69 µM; in data set [2], 9.5 µM.

Take `CC(C)(C)[C@@H](C(=O)N1C[C@H](O)C[C@H]1C(=O)NC1CN(c2ccncc2)C1)n1cc(C2CC2)nn1` [Compound 445, (2S,4R)-1-[(2S)-2-(4-cyclopropyltriazol-1-yl)-3,3-dimethyl-butanoyl]-4-hydroxy-N-[1-(4-pyridyl)azetidin-3-yl]pyrrolidine-2-carboxamide]: the IC50 turned out to be 26.7 µM in data set [1] and 22.3 µM in data set [2]. Further, the “Normalized viability % DMSO” value in data set [3] is 5.2 % DMSO.

Regarding `Cc1ccc(N2CCC[C@H]2CNC(=O)[C@@H]2C[C@@H](O)CN2C(=O)[C@@H](n2cc(C3CC3)nn2)C(C)(C)C)cc1` [Compound 462, (2S,4R)-1-[(2S)-2-(4-cyclopropyltriazol-1-yl)-3,3-dimethyl-butanoyl]-4-hydroxy-N-[[(2S)-1-(p-tolyl)pyrrolidin-2-yl]methyl]pyrrolidine-2-carboxamide], the IC50 in data set [1] worked out at 2.82 µM; in data set [2], 5.35 µM. In addition, the “Normalized viability % DMSO” value in data set [3] was determined as 11.3 % DMSO.

Take `CC(C)(C)[C@@H](C(=O)N1C[C@H](O)C[C@H]1C(=O)NC1CCN(c2ccc(Cl)c(Cl)c2)C1)n1cc(C2CC2)nn1` (stereo partly drawn) [Compound 463, (2S,4R)-1-[(2S)-2-(4-cyclopropyltriazol-1-yl)-3,3-dimethyl-butanoyl]-N-[1-(3,4-dichlorophenyl)pyrrolidin-3-yl]-4-hydroxy-pyrrolidine-2-carboxamide]: the 50% inhibitory concentration (IC50) in data set [1] stood at 3.68 µM; in data set [2] it was 4.86 µM. For the same compound, in data set [7], the “Normalized viability % DMSO” value is recorded as 35.6 % DMSO.

For the compound `CCC(CNC(=O)[C@@H]1C[C@@H](O)CN1C(=O)[C@@H](n1cc(C2CC2)nn1)C(C)(C)C)Oc1cccc(C(F)(F)F)c1` (stereo partly drawn) [Compound 493, (2S,4R)-1-[(2S)-2-(4-cyclopropyltriazol-1-yl)-3,3-dimethyl-butanoyl]-4-hydroxy-N-[2-[3-(trifluoromethyl)phenoxy]butyl]pyrrolidine-2-carboxamide], the figures for the IC50 in data set [1] and in data set [2] were 3.68 µM and 5.56 µM, respectively. Moreover, the “Normalized viability % DMSO” value in data set [7] amounted to 51.8 % DMSO.

On to `CC(Cc1ccc(Br)cc1F)NC(=O)[C@@H]1C[C@@H](O)CN1C(=O)[C@@H](n1cc(C2CC2)nn1)C(C)(C)C` (stereo partly drawn) [Compound 556, (2S,4R)-N-[2-(4-bromo-2-fluoro-phenyl)-1-methyl-ethyl]-1-[(2S)-2-(4-cyclopropyltriazol-1-yl)-3,3-dimethyl-butanoyl]-4-hydroxy-pyrrolidine-2-carboxamide], for which the “Normalized viability % DMSO” value in data set [5] (10 μM) is on record as 50.4 % DMSO. Further, the IC50 in data set [1] came out at 0.55 µM; in data set [2], 2.52 µM.

For `CC(C)(NC(=O)[C@@H]1C[C@@H](O)CN1C(=O)[C@@H](n1cc(C2CC2)nn1)C(C)(C)C)c1cccc(C#N)c1` [Compound 561, (2S,4R)-N-[1-(3-cyanophenyl)-1-methyl-ethyl]-1-[(2S)-2-(4-cyclopropyltriazol-1-yl)-3,3-dimethyl-butanoyl]-4-hydroxy-pyrrolidine-2-carboxamide], the IC50 turned out to be 0.928 µM in data set [1] and 1.64 µM in data set [2]. The “Normalized viability % DMSO” value in data set [3] is given as 12.5 % DMSO.

For the compound `CCC(NC(=O)[C@@H]1C[C@@H](O)CN1C(=O)[C@@H](n1cc(C2CC2)nn1)C(C)(C)C)c1noc(-c2cccc(Br)c2)n1` (stereo partly drawn) [Compound 617, (2S,4R)-N-[1-[5-(3-bromophenyl)-1,2,4-oxadiazol-3-yl]propyl]-1-[(2S)-2-(4-cyclopropyltriazol-1-yl)-3,3-dimethyl-butanoyl]-4-hydroxy-pyrrolidine-2-carboxamide], the IC50 came out at 0.829 µM in data set [1] and 1.35 µM in data set [2]. The “Normalized viability % DMSO” value in data set [7] was 69.8 % DMSO.

For `CNC(=O)[C@@H]1C[C@@H](O)CN1C(=O)[C@@H](n1cc(CN(C)c2ccccc2)nn1)C(C)(C)C` [Compound 842, (2S,4R)-1-[(2S)-3,3-dimethyl-2-[4-[(N-methylanilino)methyl]triazol-1-yl]butanoyl]-4-hydroxy-N-methyl-pyrrolidine-2-carboxamide], the “Normalized viability % DMSO” value in data set [4] (1 μM) is 18.5 % DMSO.

Take `CNC(=O)[C@@H]1C[C@@H](O)CN1C(=O)[C@@H](n1cc(-c2cccc(C(F)(F)F)c2)nn1)C(C)(C)C` [Compound 974, (2S,4R)-1-[(2S)-3,3-dimethyl-2-[4-[3-(trifluoromethyl)phenyl]triazol-1-yl]butanoyl]-4-hydroxy-N-methyl-pyrrolidine-2-carboxamide]: the “Normalized viability % DMSO” value in data set [5] (1 μM) amounted to 15.3 % DMSO.

Consider `CNC(=O)[C@@H]1C[C@@H](O)CN1C(=O)[C@@H](n1cc(CN2CCC(C(=O)OC)CC2)nn1)C(C)(C)C` [Compound 1059, methyl 1-[[1-[(1S)-1-[(2S,4R)-4-hydroxy-2-(methylcarbamoyl)pyrrolidine-1-carbonyl]-2,2-dimethyl-propyl]triazol-4-yl]methyl]piperidine-4-carboxylate], for which the entries for the “Normalized viability % DMSO” value in data set [4] (10 μM) and in data set [5] (10 μM) were 18.1 % DMSO and 12.7 % DMSO, respectively. The IC50 in data set [1] was 18.2 µM; in data set [2], 7.47 µM.
